Legend:
Assay type in all cases: functional, cell-based
[1] = Cytotoxicity against human Jurkat E6-1 cells assessed as cell viability after 72 hrs by MTS assay
[2] = Cytotoxicity against human Jurkat E6-1 cells assessed as cell viability after 24 hrs by MTS assay
[3] = Cytotoxicity against human Jurkat E6-1 cells assessed as cell viability after 48 hrs by MTS assay

Row | Structure (SMILES) | EC50 [1] [nM] | EC50 [2] [nM] | EC50 [3] [nM]
1 | C=C(C[C@@]12C[C@@H](C)C[C@@H](O1)[C@H]1O[C@]3(C[C@H]1O2)NC[C@H](C)C[C@@H]3C)[C@H]1O[C@@](O)([C@H](O)[C@@H]2CC[C@@H](C/C=C/CC/C=C/CCC(=O)O)O2)[C@H](C)C[C@@H]1C | 6.4 | 3.3 | 5.9
2 | C=C(C[C@@]12C[C@@H](C)C[C@@H](O1)[C@H]1O[C@]3(C[C@H]1O2)NC[C@H](C)C[C@@H]3C)[C@H]1O[C@@](O)([C@H](O)[C@@H]2C[C@H]3O[C@@]4(CC[C@]5(CC=C[C@@H](CCC(=O)O)O5)O4)[C@H](C)C[C@H]3O2)[C@H](C)C[C@@H]1C | 0.2 | 0.23 | 0.18
3 | C=C(C[C@]12C[C@@H](C)C[C@H](O1)[C@H]1O[C@]3(C[C@H]1O2)NC[C@H](C)C[C@@H]3C)[C@H]1O[C@@](O)([C@H](O)[C@@H]2C[C@H]3O[C@@]4(CC[C@]5(CC=C[C@@H](/C=C/CCC(=O)O)O5)O4)[C@H](C)C[C@H]3O2)[C@H](C)C[C@@H]1C | 1.3 | 0.96 | 1.1

From ChEMBL document CHEMBL3351879, “Isolation, structure elucidation, relative LC-MS response, and in vitro toxicity of azaspiracids from the dinoflagellate Azadinium spinosum” (J Nat Prod, 2014)
